Experimental data: US20230071574A1, “ANTI-HAIR LOSS AND HAIR GROWTH INTEGRATED CORE-SHELL MICRONEEDLE PATCH” (Tangyi Holdings (Shenzhen) Limited, priority 2021, published 2023)

Tested on: mouse models with androgenic hair loss
Test: Therapeutic effect of microneedle patches in mouse models with androgenic hair loss built by topical testosterone
Type: in vivo
Settings: testosterone-induced androgenic hair loss mice; patches used 15 days, replaced every three days; Minoxidil solution applied daily for 13 days
Method: The therapeutic effect of the anti-hair loss and hair growth integrated core-shell microneedle patch is tested, the mouse models with androgenic hair loss are built by topical administration of testosterone solution every day for 28 days, five groups of mouse models with androgenic hair loss are used to test the effect of the microneedle patch, one of the groups is a model group to which only testosterone solution is applied, the blank microneedle patch, the nano-enzyme microneedle patch (prepared in Comparative Example 1) and the core-shell microneedle patch (prepared in Embodiment 1) are used on the other three groups of mouse models with androgenic hair loss respectively, the patches are used for 15 days and replaced every three days, a Minoxidil solution is used for the last group and applied every day for 13 consecutive days. The measurement results are shown in Table 1, and the therapeutic effect of the anti-hair loss and hair growth integrated core-shell microneedle patch is judged by scoring the hair diameter, percentage of Ki67 positive cells and hair cycle.

With `Nc1cc(N2CCCCC2)nc(N)[n+]1[O-]` [Minoxidil] the Hair cycle score was 22, the Hair diameter was 11 μm and the Ki67 positive cells was 20%.
